# Molecular target: Tyrosine-protein kinase BTK (Homo sapiens, UniProt Q06187)
# Assay: In Vitro BTK Kinase Assay: Btk-PolyGAT-LS Assay
# Experimental: The purpose of the BTK in vitro assay is to determine compound potency against BTK through the measurement of IC50. […] For a typical assay, a 24 μL aliquot of a ATP/peptide master mix (final concentration; ATP 10 μM, polyGAT 100 nM) in kinase buffer (10 mM Tris-HCl pH 7.5, 10 mM MgCl2, 200 μM Na3PO4, 5 mM DTT, 0.01% Triton X-100, and 0.2 mg/ml casein) is added to each well. […] The assay is incubated for 30 minutes before being stopped with 28 μL of a 50 mM EDTA solution. […] The plate is covered and incubated for 45 minutes at room temperature.
# Tyrosine-protein kinase BTK, sequence (Q06187 whole entry): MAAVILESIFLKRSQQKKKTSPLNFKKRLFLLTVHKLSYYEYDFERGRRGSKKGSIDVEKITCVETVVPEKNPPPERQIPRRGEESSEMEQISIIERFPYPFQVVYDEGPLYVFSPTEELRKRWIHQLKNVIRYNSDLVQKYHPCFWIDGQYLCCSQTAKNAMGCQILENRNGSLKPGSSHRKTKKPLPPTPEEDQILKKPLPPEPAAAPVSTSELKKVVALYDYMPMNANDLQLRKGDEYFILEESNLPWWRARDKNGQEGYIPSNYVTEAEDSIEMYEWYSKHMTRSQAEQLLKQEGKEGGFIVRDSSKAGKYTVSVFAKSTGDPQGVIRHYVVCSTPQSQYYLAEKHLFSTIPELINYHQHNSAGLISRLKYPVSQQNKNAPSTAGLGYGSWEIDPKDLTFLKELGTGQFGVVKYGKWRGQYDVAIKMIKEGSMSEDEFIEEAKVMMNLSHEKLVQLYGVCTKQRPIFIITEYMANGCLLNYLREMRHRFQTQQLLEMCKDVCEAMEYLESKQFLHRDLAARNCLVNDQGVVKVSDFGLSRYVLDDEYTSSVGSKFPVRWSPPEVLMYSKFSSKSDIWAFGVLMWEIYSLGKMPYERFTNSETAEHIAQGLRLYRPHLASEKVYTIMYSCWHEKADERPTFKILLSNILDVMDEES
compound,measurement,value
"Cn1cc(-c2cn3nccc3c(OC3CCN(C(=O)/C=C\CCl)CC3)n2)cn1 [US20240083900, Example 8]",IC50,< 1 nM

# From BindingDB's records for patent US20240083900 (Biogen Ma, 2024)
